Results reported in the NIST ThermoML archive (doi:10.1016/j.jct.2008.03.008).
Numbers after ± are expanded uncertainties.

Experiment: molar enthalpy of vaporization or sublimation
Details: 298.15 K, Liquid

molar enthalpy (Vacuum sublimation drop method) [kcal/mol]	molar enthalpy (Flow calorimetry) [kcal/mol]	Compound
13.6 ± 1.15	–	CC(=O)c1sccc1C [2-acetyl-3-methylthiophene]
–	15.1 ± 1.24	CC(=O)c1cc(C)cs1 [2-acetyl-4-methylthiophene]
–	14.8 ± 1.24	CC(=O)c1ccc(C)s1 [2-acetyl-5-methylthiophene]
